Experimental data reported in paper doi:10.1101/208439v1 (biorxiv, 2017).
pIC50: −log10 of the molar value. Read-outs that look alike come from different tables or passages of the source.

Legend:
NSD2 = target: T1, NSD2 (Homo sapiens, UniProt O96028); assay: biochemical; parameters: MTase-Glo bioluminescence methyltransferase assay, full-length NSD2 with HeLa nucleosomes; details: read-out: MTase-Glo IC50
T1 construct: full length (residues 2-1365), N-terminal His tag, insect cell/baculovirus
T1 sequence (O96028 2-1365): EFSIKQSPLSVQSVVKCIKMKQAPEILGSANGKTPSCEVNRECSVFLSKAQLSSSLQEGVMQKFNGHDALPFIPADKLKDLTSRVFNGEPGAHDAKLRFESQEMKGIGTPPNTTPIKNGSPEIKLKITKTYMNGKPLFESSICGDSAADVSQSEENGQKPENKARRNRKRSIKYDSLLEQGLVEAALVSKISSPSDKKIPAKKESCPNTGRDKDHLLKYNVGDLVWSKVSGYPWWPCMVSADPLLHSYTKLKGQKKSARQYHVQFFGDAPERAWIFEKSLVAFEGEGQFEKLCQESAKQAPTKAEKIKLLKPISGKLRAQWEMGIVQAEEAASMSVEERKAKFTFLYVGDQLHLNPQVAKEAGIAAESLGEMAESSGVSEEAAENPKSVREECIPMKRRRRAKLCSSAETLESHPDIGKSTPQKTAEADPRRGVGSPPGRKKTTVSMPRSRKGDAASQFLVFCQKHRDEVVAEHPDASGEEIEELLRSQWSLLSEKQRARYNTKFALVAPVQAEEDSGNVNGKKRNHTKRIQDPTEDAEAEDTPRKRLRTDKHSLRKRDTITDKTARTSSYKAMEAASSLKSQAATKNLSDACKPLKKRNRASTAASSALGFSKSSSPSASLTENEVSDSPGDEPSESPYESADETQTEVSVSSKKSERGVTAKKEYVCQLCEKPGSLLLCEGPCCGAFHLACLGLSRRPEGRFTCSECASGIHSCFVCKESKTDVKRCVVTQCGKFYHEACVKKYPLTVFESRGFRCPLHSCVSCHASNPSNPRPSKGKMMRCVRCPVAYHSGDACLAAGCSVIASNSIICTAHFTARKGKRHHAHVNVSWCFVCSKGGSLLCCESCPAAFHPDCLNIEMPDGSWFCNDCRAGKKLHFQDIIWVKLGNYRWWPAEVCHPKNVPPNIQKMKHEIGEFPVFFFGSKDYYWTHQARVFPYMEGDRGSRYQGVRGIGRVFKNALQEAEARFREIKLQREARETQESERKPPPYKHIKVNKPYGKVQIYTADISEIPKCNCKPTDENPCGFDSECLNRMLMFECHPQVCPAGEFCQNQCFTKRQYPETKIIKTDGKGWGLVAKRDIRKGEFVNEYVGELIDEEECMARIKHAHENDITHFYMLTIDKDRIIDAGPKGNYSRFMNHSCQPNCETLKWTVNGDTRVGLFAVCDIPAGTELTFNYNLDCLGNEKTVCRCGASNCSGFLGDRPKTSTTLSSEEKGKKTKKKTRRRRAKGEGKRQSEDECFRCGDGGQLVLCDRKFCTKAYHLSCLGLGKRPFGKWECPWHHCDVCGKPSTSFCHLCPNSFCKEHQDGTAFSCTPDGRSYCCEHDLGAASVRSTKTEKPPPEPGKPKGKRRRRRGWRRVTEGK
Source text: A major challenge in screening for small molecule inhibitors is that native NSD2 requires nucleosomes as a substrate ([17]). […] Chemical libraries were screened in 3-dose point quantitative high-throughput screening (qHTS) format ([43]) with the Methyltransferase-Glo (MTase-Glo™) methyltransferase bioluminescence assay ([44]). A number of counter and orthogonal assays were also developed to characterize the hits from the primary screen. Confirmed hits were validated with a radiolabeled SAM substrate-based NSD2 activity assay and further interrogated with binding studies by surface plasmon resonance (SPR), methyltransferase profiling, and activity assessments in U-2 OS cells. […] Overall the reaction conditions were very similar.

SET1b Complex = SET1b Complex (Homo sapiens, UniProt Q9UPS6); assay: HotSpot [3H]SAM filter-binding methyltransferase assay; format: biochemical; parameters: gene SETD1B; complex assembled as MLL1; SET1B N-terminal GST tag, E. coli; with WD repeat-containing protein 5; Set1/Ash2 histone methyltransferase complex subunit ASH2; Protein dpy-30 homolog
PRDM9 = PRDM9 (Homo sapiens, UniProt Q9NQV7); details: read-out: DA3003-1 IC50; inhibitor
PRMT6 = PRMT6 (Homo sapiens, UniProt Q96LA8); details: read-out: DA3003-1 IC50; inhibitor
SMYD1 = target: T2, SMYD1 (Homo sapiens, UniProt Q8NB12); assay: biochemical
T2 sequence (Q8NB12 1-490): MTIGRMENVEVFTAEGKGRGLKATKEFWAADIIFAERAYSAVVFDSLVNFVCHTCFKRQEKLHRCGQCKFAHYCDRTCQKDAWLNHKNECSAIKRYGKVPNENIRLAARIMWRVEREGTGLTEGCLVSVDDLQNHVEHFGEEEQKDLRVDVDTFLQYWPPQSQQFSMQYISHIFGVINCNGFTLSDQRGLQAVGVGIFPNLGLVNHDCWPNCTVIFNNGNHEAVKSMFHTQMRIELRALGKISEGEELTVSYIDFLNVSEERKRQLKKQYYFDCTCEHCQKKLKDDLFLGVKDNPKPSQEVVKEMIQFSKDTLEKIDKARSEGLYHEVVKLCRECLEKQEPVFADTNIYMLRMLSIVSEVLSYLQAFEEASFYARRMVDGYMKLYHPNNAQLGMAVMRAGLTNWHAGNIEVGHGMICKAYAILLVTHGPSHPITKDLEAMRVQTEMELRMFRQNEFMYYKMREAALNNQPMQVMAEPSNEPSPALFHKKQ

PRMT7 = PRMT7 (Homo sapiens, UniProt Q9NVM4); assay: biochemical; details: read-out: DA3003-1 IC50; inhibitor
MLL3 Complex = MLL3 Complex (Homo sapiens, UniProt Q8NEZ4); assay: HotSpot [3H]SAM filter-binding methyltransferase assay; format: biochemical; parameters: gene KMT2C; complex assembled as MLL1; MLL3 His tag, E. coli; with WD repeat-containing protein 5; Set1/Ash2 histone methyltransferase complex subunit ASH2; Protein dpy-30 homolog; details: core histone, […] SAM, pH […] MgCl2, […] DTT, […] °C, single experiment
MLL3 Complex, sequence (Q9C005 whole entry): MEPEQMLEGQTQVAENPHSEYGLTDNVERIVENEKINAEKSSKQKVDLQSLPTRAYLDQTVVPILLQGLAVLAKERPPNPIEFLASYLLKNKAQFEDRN
MLL3 Complex, sequence (Q8NEZ4 4689-4911): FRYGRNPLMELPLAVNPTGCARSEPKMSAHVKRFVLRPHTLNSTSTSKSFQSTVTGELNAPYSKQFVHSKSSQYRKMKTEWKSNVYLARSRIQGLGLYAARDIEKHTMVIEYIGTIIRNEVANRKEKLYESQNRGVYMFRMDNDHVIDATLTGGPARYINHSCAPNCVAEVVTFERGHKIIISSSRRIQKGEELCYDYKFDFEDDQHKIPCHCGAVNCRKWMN
MLL3 Complex, sequence (Q9UBL3 96-628, further chain): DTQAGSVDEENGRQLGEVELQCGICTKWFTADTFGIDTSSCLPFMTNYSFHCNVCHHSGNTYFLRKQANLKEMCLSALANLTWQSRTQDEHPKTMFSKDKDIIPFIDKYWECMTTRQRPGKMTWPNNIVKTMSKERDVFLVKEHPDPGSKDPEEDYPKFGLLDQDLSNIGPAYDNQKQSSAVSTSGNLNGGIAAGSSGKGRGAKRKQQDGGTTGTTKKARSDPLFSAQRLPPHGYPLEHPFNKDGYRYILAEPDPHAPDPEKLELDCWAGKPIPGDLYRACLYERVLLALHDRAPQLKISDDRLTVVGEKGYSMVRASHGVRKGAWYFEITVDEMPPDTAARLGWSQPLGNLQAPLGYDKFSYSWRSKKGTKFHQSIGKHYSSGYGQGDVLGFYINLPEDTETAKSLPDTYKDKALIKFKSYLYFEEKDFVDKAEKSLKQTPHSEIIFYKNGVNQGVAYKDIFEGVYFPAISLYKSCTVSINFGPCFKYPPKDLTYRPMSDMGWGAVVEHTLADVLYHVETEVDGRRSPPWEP
MLL3 Complex, sequence (Q15291 whole entry, further chain): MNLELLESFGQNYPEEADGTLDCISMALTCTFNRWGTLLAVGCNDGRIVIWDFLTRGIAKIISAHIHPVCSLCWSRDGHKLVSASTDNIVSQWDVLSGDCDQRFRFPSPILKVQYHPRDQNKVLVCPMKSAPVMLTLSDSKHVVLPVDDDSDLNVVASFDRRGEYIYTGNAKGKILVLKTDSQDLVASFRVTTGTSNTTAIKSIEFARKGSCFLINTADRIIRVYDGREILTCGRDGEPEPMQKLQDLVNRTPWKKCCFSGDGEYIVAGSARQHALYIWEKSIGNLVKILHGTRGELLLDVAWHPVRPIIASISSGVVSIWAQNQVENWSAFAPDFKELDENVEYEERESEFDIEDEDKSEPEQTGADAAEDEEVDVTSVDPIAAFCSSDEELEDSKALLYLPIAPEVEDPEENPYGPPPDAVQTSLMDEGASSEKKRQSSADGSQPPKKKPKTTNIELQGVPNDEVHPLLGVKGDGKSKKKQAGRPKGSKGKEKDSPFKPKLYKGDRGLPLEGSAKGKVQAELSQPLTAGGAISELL

SET1b Complex, sequence (Q15291 whole entry): as the sequence (Q15291 whole entry, further chain) above
SET1b Complex, sequence (Q9UPS6 1672-1966): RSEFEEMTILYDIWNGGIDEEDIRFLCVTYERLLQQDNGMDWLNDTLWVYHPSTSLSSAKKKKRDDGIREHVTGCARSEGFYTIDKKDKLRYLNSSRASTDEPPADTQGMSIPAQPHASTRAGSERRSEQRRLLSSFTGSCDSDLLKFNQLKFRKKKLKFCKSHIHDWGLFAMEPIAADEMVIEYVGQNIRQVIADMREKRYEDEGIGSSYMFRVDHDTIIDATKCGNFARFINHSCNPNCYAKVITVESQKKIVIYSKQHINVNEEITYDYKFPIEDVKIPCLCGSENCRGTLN
SET1b Complex, sequence (Q9C005 whole entry, further chain): as the sequence (Q9C005 whole entry) above
SET1b Complex, sequence (Q9UBL3 96-628, further chain): as the sequence (Q9UBL3 96-628, further chain) above
PRMT6, sequence (Q96LA8 whole entry): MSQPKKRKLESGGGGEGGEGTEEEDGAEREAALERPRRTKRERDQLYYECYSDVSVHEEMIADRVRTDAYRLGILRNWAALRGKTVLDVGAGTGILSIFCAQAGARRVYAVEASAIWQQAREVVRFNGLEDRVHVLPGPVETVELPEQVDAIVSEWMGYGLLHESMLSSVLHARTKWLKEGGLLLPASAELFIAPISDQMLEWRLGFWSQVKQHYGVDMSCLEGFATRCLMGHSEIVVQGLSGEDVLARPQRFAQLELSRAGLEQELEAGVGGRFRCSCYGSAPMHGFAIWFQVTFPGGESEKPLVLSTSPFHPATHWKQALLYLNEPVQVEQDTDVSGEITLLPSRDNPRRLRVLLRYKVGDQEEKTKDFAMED
PRDM9, sequence (Q9NQV7 whole entry): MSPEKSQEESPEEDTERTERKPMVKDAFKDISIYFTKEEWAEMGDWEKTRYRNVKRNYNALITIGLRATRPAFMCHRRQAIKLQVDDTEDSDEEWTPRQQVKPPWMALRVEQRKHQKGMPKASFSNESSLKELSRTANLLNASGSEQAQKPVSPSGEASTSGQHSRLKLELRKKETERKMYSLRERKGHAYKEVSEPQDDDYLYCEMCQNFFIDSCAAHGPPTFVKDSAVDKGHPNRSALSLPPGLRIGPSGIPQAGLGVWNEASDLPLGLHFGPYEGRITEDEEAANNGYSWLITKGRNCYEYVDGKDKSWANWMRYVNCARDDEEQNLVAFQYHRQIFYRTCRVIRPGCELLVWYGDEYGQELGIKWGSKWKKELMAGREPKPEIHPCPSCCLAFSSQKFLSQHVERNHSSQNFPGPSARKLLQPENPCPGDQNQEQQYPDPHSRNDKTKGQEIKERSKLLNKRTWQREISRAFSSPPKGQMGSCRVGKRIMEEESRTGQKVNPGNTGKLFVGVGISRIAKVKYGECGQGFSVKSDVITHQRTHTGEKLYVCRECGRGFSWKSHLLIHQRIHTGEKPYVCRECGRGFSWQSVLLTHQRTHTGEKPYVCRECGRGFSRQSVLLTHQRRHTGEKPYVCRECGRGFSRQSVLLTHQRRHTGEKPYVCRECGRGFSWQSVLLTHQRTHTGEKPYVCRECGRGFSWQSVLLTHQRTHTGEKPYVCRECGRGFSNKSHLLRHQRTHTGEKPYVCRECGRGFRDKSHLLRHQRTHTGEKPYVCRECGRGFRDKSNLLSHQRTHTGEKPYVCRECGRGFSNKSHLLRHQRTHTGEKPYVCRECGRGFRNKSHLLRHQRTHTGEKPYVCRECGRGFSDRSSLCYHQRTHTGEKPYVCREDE
PRMT7, sequence (Q9NVM4 whole entry): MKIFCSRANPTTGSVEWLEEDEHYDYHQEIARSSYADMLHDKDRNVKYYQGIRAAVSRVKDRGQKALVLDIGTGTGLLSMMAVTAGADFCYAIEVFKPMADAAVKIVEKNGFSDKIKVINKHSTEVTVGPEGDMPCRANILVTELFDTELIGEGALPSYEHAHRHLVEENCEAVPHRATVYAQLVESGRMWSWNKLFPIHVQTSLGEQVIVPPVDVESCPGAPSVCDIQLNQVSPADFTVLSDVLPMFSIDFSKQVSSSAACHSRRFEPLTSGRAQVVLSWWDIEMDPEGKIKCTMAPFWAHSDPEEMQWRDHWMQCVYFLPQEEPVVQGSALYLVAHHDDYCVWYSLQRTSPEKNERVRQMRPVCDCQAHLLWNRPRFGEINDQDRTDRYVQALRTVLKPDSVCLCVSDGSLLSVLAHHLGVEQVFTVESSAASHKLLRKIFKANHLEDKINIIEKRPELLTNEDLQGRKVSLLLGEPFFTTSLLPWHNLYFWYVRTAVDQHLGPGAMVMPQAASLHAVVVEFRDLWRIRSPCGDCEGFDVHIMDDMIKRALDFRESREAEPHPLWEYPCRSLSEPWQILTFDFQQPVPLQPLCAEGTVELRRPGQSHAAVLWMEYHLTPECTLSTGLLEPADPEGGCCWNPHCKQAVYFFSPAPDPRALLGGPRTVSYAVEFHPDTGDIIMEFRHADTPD

CC1(C)CCC(CN2CCN(c3ccc(C(=O)NS(=O)(=O)c4ccc(NCC5CCOCC5)c([N+](=O)[O-])c4)c(Oc4cnc5[nH]ccc5c4)c3)CC2)=C(c2ccc(Cl)cc2)C1 [ABT-199]
pIC50 (NSD2): 4.82
pIC50 (SET1b Complex): 5.15

O=C1C(Cl)=C(NCCN2CCOCC2)C(=O)c2ncccc21 [DA3003-1]
pIC50 (PRDM9): 6.43
pIC50 (PRMT6): 6.00
pIC50 (SMYD1; read-out: DA3003-1 IC50, inhibitor): 6.00
pIC50 (PRMT7): 6.38

COc1cccc(-n2nc(C(=O)O)cc2-c2ccc(C3CCCCC3)c(Cl)c2)c1 [TC LPA5 4]
pIC50 (SET1b Complex; core histone, […] SAM, pH […] MgCl2, […] DTT, […] °C, single experiment): 5.10
pIC50 (MLL3 Complex): 4.20
pIC50 (SMYD1): 4.68
